This is an account of results in US20250120951A1, “CLEMIZOLE FORMULATION” (EPYGENIX THERAPEUTICS, INC., priority 2021, published 2025).

Data set [1] is described as follows: Solubility testing for clemizole HCl in solvent systems (Example 1). It is filed as physicochemical. The procedure: Solubility testing for clemizole HCl in a compatible solvent system was conducted to identify a buffer system that solubilized the required concentration of clemizole HCl without any precipitation. […] Actual clemizole HCl solubility values in each of the solvent systems are described in Table 1.

Data set [2] can be described thus: Excipient compatibility: clemizole HCl assay and total related substances, 14 days at 50° C. (Example 4). The class given is physicochemical. Here is the method: In an example, various excipients were examined at the 14-day time point (50° C.) to guide the decision on the choice of excipients to be used during formulation development. Table 5 below illustrates the stability of clemizole HCl at day 14 following incubation in the various formulations listed.
However, due to the poor solubility of ethyl parahydroxybenzoate, either a solubilizer such as PEG400, or a soluble form of ethyl parahydroxybenzoate, such as the sodium salt, would be required. Glycerol was compatible with clemizole HCl and may be used to improve the taste formulation.

As usually defined, the solubility is the dissolved amount per volume that the medium holds.

Where “and” joins values, the source holds several entries; their conditions need not be identical. Identical values can stand only once. Counter-ions that a name gives are not always drawn. Like-named read-outs stand apart in the source and are kept apart here.

As to `Clc1ccc(Cn2c(CN3CCCC3)nc3ccccc32)cc1` [clemizole HCl], the solubility in data set [1] (0.1 M HCl, simulated gastric fluid, 0.1M HCl 100% w/w, read-out: Actual Solubility) is 11 mg/mL; in data set [1] (Solutol HS15 solution, 40 °C, aqueous with cosolvent or surfactant or cyclodextrin, 20% w/w solution of Solutol HS15 at 40° C., read-out: solubility of clemizole HCl) it was 36 mg/mL; in data set [1] (citrate buffer, pH 4.5, aqueous buffer, pH 4.5 Citrate Buffer 100% w/w, read-out: Actual Solubility), 12.7 mg/mL; in data set [1] (citrate buffer, pH 4.5, aqueous with cosolvent or surfactant or cyclodextrin, pH 4.5 Citrate Buffer 79.5 / PEG400 20.0 / Sodium ascorbate 0.5 % w/w, read-out: Actual Solubility) it was 9.29 mg/mL; in data set [1] (citrate buffer, pH 4.5, aqueous with cosolvent or surfactant or cyclodextrin, pH 4.5 Citrate Buffer 80.0 / Glycerol 20.0 % w/w, read-out: Actual Solubility), 13.5 mg/mL; in data set [1] (citrate buffer, pH 4.5, aqueous with cosolvent or surfactant or cyclodextrin, pH 4.5 Citrate Buffer 80.0 / Propylene glycol 20.0 % w/w, read-out: Actual Solubility) it was 11.4 mg/mL. For the same compound, the solubility worked out at 29.9 mg/mL in data set [1] (citrate buffer, pH 4.5, aqueous with cosolvent or surfactant or cyclodextrin, pH 4.5 Citrate Buffer 90.0 / 2-Hydroxypropyl-β-cyclodextrin 10.0 % w/w, read-out: Actual Solubility); 21.4 mg/mL in data set [1] (citrate buffer, pH 4.5, aqueous with cosolvent or surfactant or cyclodextrin, pH 4.5 Citrate Buffer 94.5 / Polysorbate 20 5.0 / Sodium ascorbate 0.5 % w/w, read-out: Actual Solubility); 24.6 mg/mL in data set [1] (citrate buffer, pH 4.5, aqueous with cosolvent or surfactant or cyclodextrin, pH 4.5 Citrate Buffer 94.5 / Polysorbate 80 5.0 / Sodium ascorbate 0.5 % w/w, read-out: Actual Solubility); 19.1 mg/mL in data set [1] (citrate buffer, pH 4.5, aqueous with cosolvent or surfactant or cyclodextrin, pH 4.5 Citrate Buffer 95.0 / Cremophor ELP 5.0 % w/w, read-out: Actual Solubility); 19.7 mg/mL in data set [1] (citrate buffer, pH 4.5, aqueous with cosolvent or surfactant or cyclodextrin, pH 4.5 Citrate Buffer 95.0 / Cremophor RH40 5.0 % w/w, read-out: Actual Solubility); 19.8 mg/mL in data set [1] (citrate buffer, pH 4.5, aqueous with cosolvent or surfactant or cyclodextrin, pH 4.5 Citrate Buffer 95.0 / Solutol HS15 5.0 % w/w, read-out: Actual Solubility). Also, the solubility was found to be 25.9 mg/mL in data set [1] (citrate buffer, pH 4.5, aqueous with cosolvent or surfactant or cyclodextrin, pH 4.5 Citrate Buffer 95.0 / TPGS 5.0 % w/w, read-out: Actual Solubility); 0.06 mg/mL in data set [1] (phosphate buffer, pH 6.8, aqueous buffer, pH 6.8 Phosphate Buffer 100% w/w, read-out: Actual Solubility); 0.28 mg/mL in data set [1] (phosphate buffer, pH 6.8, aqueous with cosolvent or surfactant or cyclodextrin, pH 6.8 Phosphate Buffer 79.5 / PEG400 20.0 / Sodium ascorbate 0.5 % w/w, read-out: Actual Solubility); 0.07 mg/mL in data set [1] (phosphate buffer, pH 6.8, aqueous with cosolvent or surfactant or cyclodextrin, pH 6.8 Phosphate Buffer 80.0 / Glycerol 20.0 % w/w, read-out: Actual Solubility); 0.08 mg/mL in data set [1] (phosphate buffer, pH 6.8, aqueous with cosolvent or surfactant or cyclodextrin, pH 6.8 Phosphate Buffer 80.0 / Propylene glycol 20.0 % w/w, read-out: Actual Solubility). Also, the “effect of freeze-thawing on clemizole HCl solubility” value in data set [1] (freeze-thawing) is listed as “does not appear to reduce”. Also, in data set [2] (50° C., 14 day, mean), the “Assay Results (%) 50° C., 14 day Mean” value was 100.9%. Further, in data set [2] (50° C., 14 day, single replicates, listed as API only, HCl), the “Assay Results (%) 50° C., 14 day” value is 101.1% and 100.7%. Besides, the “Assay Results (%) Initial Mean” value in data set [2] (Initial, mean) amounted to 100.5%. The “Assay Results (%) Initial” value in data set [2] (Initial, single replicates, listed as API only, HCl) is 100.0% and 101.0%.
